The text below walks through data of US20160367685A1, “DUPA-INDENOISOQUINOLINE CONJUGATES” (PURDUE RESEARCH FOUNDATION, priority 2013, published 2016).

pIC50, pKi: −log10 of the molar value. “Also recorded” adds a separate entry of the source. Like-named read-outs stand apart in the source and are kept apart here.

The test system of data set [1] is NCI panel of 60 human cancer cell lines. The data set is described as follows: Cytotoxicity mean-graph midpoint in NCI panel of 60 cancer cell lines. Format: cell-based. The conditions noted are these: for MGM (μM), cytotoxicity mean-graph midpoint: approximate average of GI50 across the panel.
A further data set addresses T1, Top1 (Homo sapiens, UniProt P11387).
T1 sequence (P11387 1-765): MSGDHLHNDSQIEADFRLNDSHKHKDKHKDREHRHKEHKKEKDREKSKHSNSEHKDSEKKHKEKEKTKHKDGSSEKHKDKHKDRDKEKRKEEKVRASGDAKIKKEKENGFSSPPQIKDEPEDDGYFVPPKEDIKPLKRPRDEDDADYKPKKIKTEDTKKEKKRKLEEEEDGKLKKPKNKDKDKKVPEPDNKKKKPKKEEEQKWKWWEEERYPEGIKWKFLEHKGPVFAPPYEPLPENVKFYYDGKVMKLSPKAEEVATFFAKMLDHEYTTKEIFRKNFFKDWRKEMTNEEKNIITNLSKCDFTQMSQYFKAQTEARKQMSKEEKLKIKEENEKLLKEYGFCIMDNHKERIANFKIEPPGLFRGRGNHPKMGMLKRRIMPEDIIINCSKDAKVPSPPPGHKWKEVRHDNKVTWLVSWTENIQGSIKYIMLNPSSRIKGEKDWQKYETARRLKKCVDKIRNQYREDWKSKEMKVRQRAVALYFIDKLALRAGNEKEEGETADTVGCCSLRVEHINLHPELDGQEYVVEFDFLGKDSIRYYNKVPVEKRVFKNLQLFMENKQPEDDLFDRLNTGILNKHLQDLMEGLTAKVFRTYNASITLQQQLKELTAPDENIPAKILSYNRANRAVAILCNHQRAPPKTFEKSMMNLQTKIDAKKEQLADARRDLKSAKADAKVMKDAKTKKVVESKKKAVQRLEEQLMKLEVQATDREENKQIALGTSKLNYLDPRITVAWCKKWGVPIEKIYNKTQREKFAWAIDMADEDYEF
The data set is described as follows: Top1-mediated DNA cleavage assay. It counts as biochemical. The conditions noted are these: graded relative to 1 μM camptothecin. Details: key: 0: no inhibitory activity; +: between 20% and 50% activity; ++: between 50% and 75% activity; +++: between 75% and 95% activity; ++++: equipotent; +++++: more potent.

Data set [2] can be described thus: Water solubility at room temperature. It counts as physicochemical.
Another data set has as its system 22RV1 cells. The data set is described as follows: cells. Format: cell-based, human. Particulars: for pIC50: read-out: IC50. The procedure: 22RV1 cells were seeded in 24-well (50000 cells/well) Falcon plates and allowed to form monolayers over a period of 24-48 h. The old medium was replaced with fresh medium (0.5 mL) containing increasing concentrations of drug (either targeted or non-targeted) and cells were incubated for an additional 2 h and 24 h (in the case of targeted drug) at 37° C. Cells were washed (3×0.5 mL) with fresh medium and incubated in fresh medium (0.5 mL) for another 66 h at 37° C. The spent medium in each well was replaced with fresh medium (0.5 mL) containing [^3H]-thymidine (1 mCi/mL), and the cells were incubated for additional 4 h at 37° C. to allow [^3H]-thymidine incorporation. The cells were then washed with medium (2×0.5 mL) and treated with 5% trichloroacetic acid (0.5 mL) for 10 min at room temperature. The trichloroacetic acid was replaced with 0.25 N NaOH (0.5 mL) and the cells were transferred to individual scintillation vials containing Ecolume scintillation cocktail (3.0 mL), mixed well to form homogeneous liquid, and counted in a liquid scintillation analyzer. IC50 values were calculated by plotting %[^3H]-thymidine incorporation versus log concentration of drugs (targeted and non-targeted) using in GraphPad Prism 4.
The IC50 value of the indenoisoquinoline 18 itself was 2.0 nM when determined after a 2 h incubation. […] An increase in potency of 86 relative to 18 was not observed. […] However, the potential value of the conjugate 86 is lack of cytotoxicity in “normal” cells, which would result in 86 being a less toxic anticancer drug.

In the next data set the test system is 22RV1 tumors. In words: 22RV1 xenograft-bearing mice therapy study. Particulars: for tumor growth during the treatment period: alternate days; for tumor growth during the treatment period / toxicity to the animals: 3 days/week for 3 weeks; for toxicity to the animals / body weight during the treatment period: 40 nmol/mouse IP; for body weight during the treatment period: live mice, 3 days/week for 3 weeks (FIG. 6).

The test system of the next data set is LNCap cell cultures. The data set is described as follows: Cytotoxicity in LNCap cell cultures. The conditions noted are these: LNCap cell cultures (FIG. 3). It counts as cell-based. The source says:
The excellent cytotoxicities of the DUPA conjugates served as an indication that the disulfide reduction and conversion of the intermediates to the base drugs (6 and 18) are occurring intracellularly. Although an increase in potency has not been observed yet, this encouraging result partially supported our initial hypothesis, and urged further optimization of the peptide linker to facilitate the drug releasing mechanism.

A further data set concerns PSMA. The conditions noted are these: PSMA ligand, literature value; cited from earlier work.
[3] abbreviates: Table 1, average of two determinations.

For the molecule `Br.COc1cc2c(cc1O)C(=O)c1c-2n(CCCn2ccnc2)c(=O)c2cc([N+](=O)[O-])ccc12` [Compound 14, 6-(3-(1H-Imidazol-1-yl)propyl)-9-hydroxy-8-methoxy-3-nitro-5H-indeno[1,2-c]isoquinoline-5,11(6H)-dione hydrobromide], in data set [1] (setting [3]), the “MGM (μM), cytotoxicity mean-graph midpoint” value (from here on “MGM (μM)”) amounted to 0.019 µM. Also, the Top1 inhibitory activity entry at Top1 (Table 1) is “+ (between 20% and 50% activity)”.

`COc1cc2c3c(n(CCCN4CCOCC4)c(=O)c2cc1OC)-c1cc(OC)c(OC(=O)OCCSSC[C@H](NC(=O)[C@H](CC(=O)O)NC(=O)[C@@H](N)CNC(=O)[C@H](Cc2ccccc2)NC(=O)[C@H](Cc2ccccc2)NC(=O)CCCCCCCNC(=O)CC[C@H](NC(=O)N[C@@H](CCC(=O)O)C(=O)O)C(=O)O)C(=O)O)cc1C3=O` [Compound 86, (8R,11S,14S,18S,21S,35S,39S)-14-Amino-18,21-dibenzyl-11-(carboxymethyl)-1,10,13,17,20,23,32,37-octaoxo-1-((2,3,8-trimethoxy-6-(3-morpholinopropyl)-5,11-dioxo-6,11-dihydro-5H-indeno[1,2-c]isoquinolin-9-yl)oxy)-2-oxa-5,6-dithia-9,12,16,19,22,31,36,38-octaazahentetracontane-8,35,39,41-tetracarboxylic Acid]: in data set [2], the solubility in water result is “dissolved easily”. In data set [2] (listed as 30), the solubility in water entry is “dissolve completely and easily”. In the data set on 22RV1 cells (24-hour incubation), the pIC50 (as a rule, −log10 of the IC50, conventionally taken in molar units) was 7.94. For the same molecule, the IC50 result in the data set on 22RV1 cells (2 h incubation) was “no activity”. For the same molecule, the “deaths of animals during the treatment period” value in the data set with 22RV1 tumors (40 nmol/mouse (2.0 μmol/kg) IP, 5 mice per group) was “not lethal; also recorded: no deaths”. For the same molecule, in the data set with 22RV1 tumors (40 nmol/mouse (2.0 μmol/kg) IP), the “tumor growth during the treatment period” value was “cessation of tumor growth”. In the data set on 22RV1 tumors, the “toxicity to the animals” value was “non-toxic” and the “body weight during the treatment period” value was “retained their normal body weights”. For the same molecule, the “antitumor activity in competition group” value in the data set with 22RV1 tumors (86 at 40 nmol/mouse IP plus PSMA competitor 28 in 10-fold excess) is reported as “complete loss of activity”. Besides, in the data set on LNCap cell cultures, the cytotoxicities entry was “low nanomolar range”.

On to `COc1cc2c3c(n(CCCN4CCOCC4)c(=O)c2cc1OC)-c1cc2c(cc1C3=O)OCO2` [drawing 72], for which the “MGM (μM)” value in data set [1] (Table 2) worked out at 4.64 µM. For the same molecule, at Top1 (Table 2), the “Top1 inhibitory activity” value is on record as “++++”.

With `COc1ccc2c(c1)C(=O)c1c-2n(CCCNC(=O)OCCSSC[C@H](NC(=O)[C@H](CC(=O)O)NC(=O)[C@@H](N)CNC(=O)[C@H](Cc2ccccc2)NC(=O)[C@H](Cc2ccccc2)NC(=O)CCCCCCCNC(=O)CC[C@H](NC(=O)N[C@@H](CCC(=O)O)C(=O)O)C(=O)O)C(=O)O)c(=O)c2cc([N+](=O)[O-])ccc12` [Compound 84, (12R,15S,18S,22S,25S,39S,43S)-18-Amino-22,25-dibenzyl-15-(carboxymethyl)-1-(9-methoxy-3-nitro-5,11-dioxo-5,11-dihydro-6H-indeno[1,2-c]isoquinolin-6-yl)-5,14,17,21,24,27,36,41-octaoxo-6-oxa-9,10-dithia-4,13,16,20,23,26,35,40,42-nonaazapentatetracontane-12,39,43,45-tetracarboxylic acid], in data set [2], the solubility in water result is “dissolve completely and easily”. The cytotoxicities entry in the data set with LNCap cell cultures was “low nanomolar range”.

As to `NCCCn1c2c(c3ccc([N+](=O)[O-])cc3c1=O)C(=O)c1cc3c(cc1-2)OCO3`, the “MGM (μM)” value in data set [1] (Table 2) was 0.090 µM. Further, the “Top1 inhibitory activity” value at Top1 (Table 2) was “++++”.

Consider `COc1cc2c(cc1O)C(=O)c1c-2n(CCCN2CCOCC2)c(=O)c2cc(OC)c(OC)cc12` [Compound 18], for which the pIC50 with 22RV1 cells (Homo sapiens, 2 h incubation) is 8.70. Moreover, the GI50 (in general, the concentration that inhibits growth by half) in data set [1] (Homo sapiens, NCI's panel of 60 cancer cell lines, read-out: cytotoxicity mean-graph midpoint (MGM) GI50 value) was 87 nM. Also, in the data set on 22RV1 tumors (40 nmol/mouse (2.0 μmol/kg) IP), the “tumor growth during the treatment period” value was “regression of tumor growth”. In the data set with 22RV1 tumors, the “toxicity to the animals” value was “toxic” and the “body weight during the treatment period” value is listed as “retained their normal body weights”. Further, the Top1 inhibitory activity entry on Top1 is “+++++”. Further, the cytotoxicities result in the data set with LNCap cell cultures is listed as “low nanomolar range”.

Consider `NCCCn1c2c(c3ccc(Br)cc3c1=O)C(=O)c1cc3c(cc1-2)OCO3`, for which the “MGM (μM)” value in data set [1] (Table 2) was found to be 0.329 µM. Besides, the “Top1 inhibitory activity” value at Top1 (Table 2) is “++++”.

Turning to `Br.COc1cc2c(cc1O)C(=O)c1c-2n(CCCN2CCOCC2)c(=O)c2cc([N+](=O)[O-])ccc12` [Compound 13, 9-Hydroxy-8-methoxy-6-(3-morpholinopropyl)-3-nitro-5H-indeno[1,2-c]isoquinoline-5,11(6H)-dione hydrobromide], the “MGM (μM)” value in data set [1] (setting [3]) was determined as 0.021 µM. In addition, the Top1 inhibitory activity entry at Top1 (Table 1) is “++ (between 50% and 75% activity)”.

Regarding `O=C(O)CCC(NC(=O)NC(CCC(=O)O)C(=O)O)C(=O)O` (stereo not drawn) [DUPA, 2-[3-(1,3-Dicarboxypropyl)-Ureido]Pentanedioic Acid], in the data set with PSMA, the pIC50 was 7.33 and the pKi (usually the Ki on a negative log10 scale, so that one unit is a factor of ten) is 8.10.

Turning to `Br.COc1cc2c(cc1O)C(=O)c1c-2n(CCCN)c(=O)c2cc([N+](=O)[O-])ccc12` [Compound 12, 6-(3-Aminopropyl)-9-hydroxy-8-methoxy-3-nitro-5H-indeno[1,2-c]isoquinoline-5,11(6H)-dione hydrobromide], in data set [1] (setting [3]), the “MGM (μM)” value amounted to 0.019 µM. The Top1 inhibitory activity entry on Top1 (Table 1) was “++ (between 50% and 75% activity)”.

`Cl.NCCCn1c2c(c3ccc([N+](=O)[O-])cc3c1=O)C(=O)c1cc3c(cc1-2)OCO3` [Compound 16, 6-(3-Aminopropyl)-5,6-dihydro-8,9-methylenedioxy-3-nitro-5,11-dioxo-11H-indeno[1,2-c]isoquinoline Hydrochloride]: the “MGM (μM)” value in data set [1] (setting [3]) was found to be 0.090 µM. Also, the Top1 inhibitory activity result on Top1 (Table 1) is given as “++++”.

For the molecule `COc1cc2c3c(n(CCCN4CCOCC4)c(=O)c2cc1OC)-c1cc2c(cc1C3=O)OCO2` [drawing 73], in data set [1] (Table 2), the “MGM (μM)” value amounted to 0.079 µM. For the same molecule, the “Top1 inhibitory activity” value at Top1 (Table 2) was “++++”.

For the molecule `COc1ccc2c(c1)C(=O)c1c-2n(CCCN)c(=O)c2cc([N+](=O)[O-])ccc12` [Compound 6], in data set [1] (setting [3]), the “MGM (μM)” value stood at 0.047 µM. For the same molecule, the Top1 inhibitory activity result on Top1 (Table 1) was “++++”. Further, in the data set on LNCap cell cultures, the cytotoxicities entry is “low nanomolar range”.

With `COc1ccc2c(c1)C(=O)c1c-2n(CCCNCCO)c(=O)c2cc([N+](=O)[O-])ccc12` [Compound 15], in data set [1] (setting [3]), the “MGM (μM)” value is 0.016 µM. The Top1 inhibitory activity entry on Top1 (Table 1) is “++++”.
